We go through 13 compounds from ChEMBL document CHEMBL6114942, “(E)-3-(3-([1,1'-Biphenyl]-4-yl)-1-phenyl-1H-pyrazol-4-yl)-1-phenylprop-2-en-1-ones inducing reactive oxygen species generation through glutathione depletion” (Bioorg Med Chem Lett, 2025).

Structures are written as SMILES. Active and inactive are the calls of the source. The calls are words filed in the database; no cut-off is given here.

Series [1] concerns MIA PaCa-2. The series can be described thus: Induction of reactive oxygen species generation in human MIA PaCa-2 cells assessed as ROS level at 50 uM measured after 12 hrs by DCF-DA staining based flow cytometry (reference value: 461.5 +/- 57.3). Type of series: functional.
Series [2] has as its system MIA PaCa-2. The series can be described thus: Induction of reactive oxygen species generation in human MIA PaCa-2 cells at 50 uM measured after 12 hrs by DCF-DA staining based phase-contrast fluorescence microscopy. Type of series: functional, cell-based.
Series [3] is described as follows: Induction of GSH depletion in human Primary pancreatic epithelial cells assessed as cell population with low GSH level at 50 uM measured after 18 hrs by VB-48/propidium iodide staining based flow cytometry (reference value: 7%). In kind it is toxicity. (In general: Flow cytometry measures light scatter and fluorescence of single cells or particles in a stream.)

Series [4] is described as follows: Induction of GSH depletion in human Primary pancreatic epithelial cells assessed as cell population with high GSH level at 50 uM measured after 18 hrs by VB-48/propidium iodide staining based flow cytometry (reference value: 93%). Type of series: toxicity.
Series [5] deals with MIA PaCa-2. The series can be described thus: Induction of GSH depletion in human MIA PaCa-2 assessed as cell population with low GSH level at 50 uM measured after 18 hrs by VB-48/propidium iodide staining based flow cytometry (reference value: 5%). Type of series: functional.
Series [6] has as its system MIA PaCa-2. Kind of series: Induction of GSH depletion in human MIA PaCa-2 assessed as cell population with high GSH level at 50 uM measured after 18 hrs by VB-48/propidium iodide staining based flow cytometry (reference value: 95%). Type of series: functional.
Series [7] concerns MIA PaCa-2. The series can be described thus: Induction of apoptosis in human MIA PaCa-2 cells measured after 24 to 48 hrs by Annexin-V-FITC/propidium iodide staining based flow cytometry. In kind it is functional, cell-based. The following applies: dose 50-100 µM, time 24-48 hrs.
The subject of series [8] is MIA PaCa-2. The series can be described thus: Induction of apoptosis in human MIA PaCa-2 cells assessed as viable cells at 50 uM measured after 24 hrs by Annexin-V-FITC/propidium iodide staining based flow cytometry (reference value: 74%). Type of series: functional. The note with it: read-out: Activity.
The test system of series [9] is MIA PaCa-2. The series can be described thus: Induction of apoptosis in human MIA PaCa-2 cells assessed as early apoptotic cells at 50 uM measured after 24 hrs by Annexin-V-FITC/propidium iodide staining based flow cytometry (reference value: 13%). In kind it is functional.
Series [10] has as its system MIA PaCa-2. Kind of series: Induction of apoptosis in human MIA PaCa-2 cells assessed as late apoptotic cells at 50 uM measured after 24 hrs by Annexin-V-FITC/propidium iodide staining based flow cytometry (reference value: 4%). In kind it is functional.
Series [11] concerns MIA PaCa-2. Kind of series: Induction of apoptosis in human MIA PaCa-2 cells assessed as necrotic cells at 50 uM measured after 24 hrs by Annexin-V-FITC/propidium iodide staining based flow cytometry (reference value: 9%). In kind it is functional.
The test system of series [12] is MIA PaCa-2. The series can be described thus: Induction of apoptosis in human MIA PaCa-2 cells assessed as viable cells at 100 uM measured after 24 hrs by Annexin-V-FITC/propidium iodide staining based flow cytometry (reference value: 74%). Type of series: functional. The note with it: read-out: Activity.
Series [13] has as its system MIA PaCa-2. The series can be described thus: Induction of apoptosis in human MIA PaCa-2 cells assessed as early apoptotic cells at 100 uM measured after 24 hrs by Annexin-V-FITC/propidium iodide staining based flow cytometry (reference value: 13%). Type of series: functional.
Series [14] relates to MIA PaCa-2. The series can be described thus: Induction of apoptosis in human MIA PaCa-2 cells assessed as late apoptotic cells at 100 uM measured after 24 hrs by Annexin-V-FITC/propidium iodide staining based flow cytometry (reference value: 4%). In kind it is functional.
Series [15] relates to MIA PaCa-2. The series can be described thus: Induction of apoptosis in human MIA PaCa-2 cells assessed as necrotic cells at 100 uM measured after 24 hrs by Annexin-V-FITC/propidium iodide staining based flow cytometry (reference value: 9%). In kind it is functional.
The subject of series [16] is MIA PaCa-2. Kind of series: Induction of apoptosis in human MIA PaCa-2 cells assessed as viable cells at 50 uM measured after 48 hrs by Annexin-V-FITC/propidium iodide staining based flow cytometry (reference value: 71%). The following applies: read-out: Activity. In kind it is functional.
Series [17] relates to MIA PaCa-2. The series can be described thus: Induction of apoptosis in human MIA PaCa-2 cells assessed as early apoptotic cells at 50 uM measured after 48 hrs by Annexin-V-FITC/propidium iodide staining based flow cytometry (reference value: 15%). In kind it is functional.
The subject of series [18] is MIA PaCa-2. Kind of series: Induction of apoptosis in human MIA PaCa-2 cells assessed as late apoptotic cells at 50 uM measured after 48 hrs by Annexin-V-FITC/propidium iodide staining based flow cytometry (reference value: 3%). In kind it is functional.
The test system of series [19] is MIA PaCa-2. The series can be described thus: Induction of apoptosis in human MIA PaCa-2 cells assessed as necrotic cells at 50 uM measured after 48 hrs by Annexin-V-FITC/propidium iodide staining based flow cytometry (reference value: 11%). In kind it is functional.
For series [20], the system named is MIA PaCa-2. Kind of series: Induction of apoptosis in human MIA PaCa-2 cells assessed as viable cells at 100 uM measured after 48 hrs by Annexin-V-FITC/propidium iodide staining based flow cytometry (reference value: 71%). Type of series: functional. The note with it: read-out: Activity.
The test system of series [21] is MIA PaCa-2. Kind of series: Induction of apoptosis in human MIA PaCa-2 cells assessed as early apoptotic cells at 100 uM measured after 48 hrs by Annexin-V-FITC/propidium iodide staining based flow cytometry (reference value: 15%). Type of series: functional.
The subject of series [22] is MIA PaCa-2. Kind of series: Induction of apoptosis in human MIA PaCa-2 cells assessed as late apoptotic cells at 100 uM measured after 48 hrs by Annexin-V-FITC/propidium iodide staining based flow cytometry (reference value: 3%). Type of series: functional.
Series [23] relates to MIA PaCa-2. Kind of series: Induction of apoptosis in human MIA PaCa-2 cells assessed as necrotic cells at 100 uM measured after 48 hrs by Annexin-V-FITC/propidium iodide staining based flow cytometry (reference value: 11%). In kind it is functional.
For series [24], the system named is MIA PaCa-2. The series can be described thus: Inhibition of GST activity in human MIA PaCa-2 cells at 50 uM using CDNB as substrate measured after 6 hrs by spectrophotometric method. In kind it is cell-based.

Take `O=C(/C=C/c1cn(-c2ccccc2)nc1-c1ccc(-c2ccccc2)cc1)c1ccc(O)cc1`: the Activity in the series on MIA PaCa-2 [1] was determined as 639.
On to `CC1=CC(=O)c2ccccc2C1=O` [MENADIONE], for which the Activity with MIA PaCa-2 [1] is on record as 1160.5.
For `COc1cccc(O)c1C(=O)/C=C/c1cn(-c2ccccc2)nc1-c1ccc(-c2ccccc2)cc1`, the Activity with MIA PaCa-2 [1] was found to be 580.5.
`COc1ccc(-n2cc(/C=C/C(=O)c3cccc(OC)c3)c(-c3ccc(-c4ccccc4)cc3)n2)cc1`: in the series with MIA PaCa-2 [1], the Activity worked out at 720.5.
In the case of `COc1cccc(C(=O)/C=C/c2cn(-c3ccccc3)nc2-c2ccc(-c3ccccc3)cc2)c1`, the Activity with MIA PaCa-2 [1] was 680.
The same measure, in the same setting: next, `COc1ccc(-n2cc(/C=C/C(=O)c3ccccc3OC)c(-c3ccc(-c4ccccc4)cc3)n2)cc1`: 535.5.
The same measure, in the same setting: then `COc1ccccc1C(=O)/C=C/c1cn(-c2ccccc2)nc1-c1ccc(-c2ccccc2)cc1`, with 619.5.
Still for that read-out and setting: next, `O=C(/C=C/c1cn(-c2ccccc2)nc1-c1ccc(-c2ccccc2)cc1)c1cc(Cl)ccc1O`: 661.
Turning to `COc1ccc(C(=O)/C=C/c2cn(-c3ccc(OC)cc3)nc2-c2ccc(-c3ccccc3)cc2)cc1`, the Activity entry in the series with MIA PaCa-2 [2] was “Active; Most Effective Among The Tested Compounds”; in series [3], 14%; in series [4], 86%; in the series with MIA PaCa-2 [5], 44%; in the series with MIA PaCa-2 [6] it was 55%; in the series with MIA PaCa-2 [7] it was “Dose-dependent-effect”. Moreover, the Activity in the series with MIA PaCa-2 [9] is 39%; in the series on MIA PaCa-2 [10], 7%; with MIA PaCa-2 [11], 6%; in the series on MIA PaCa-2 [13] it was 60%; in the series on MIA PaCa-2 [14] it was 6%; with MIA PaCa-2 [15], 3%. The Activity in the series with MIA PaCa-2 [17] was 65%; in the series with MIA PaCa-2 [18] it was 8%; with MIA PaCa-2 [19] it was 5%; with MIA PaCa-2 [21] it was 74%; in the series with MIA PaCa-2 [22], 11%; in the series on MIA PaCa-2 [23], 4%. For the same compound, the Activity in the series on MIA PaCa-2 [1] stood at 799.5. In addition, the viability at 50 µM with MIA PaCa-2 [8] amounted to 49%; with MIA PaCa-2 [16], 22%. The viability at 100 µM was determined as 30% in the series on MIA PaCa-2 [12] and 11% with MIA PaCa-2 [20]. For the same compound, the inhibition result in the series on MIA PaCa-2 [24] was “Active”.
As to `COc1ccc(C(=O)/C=C/c2cn(-c3ccc(F)cc3)nc2-c2ccc(-c3ccccc3)cc2)cc1`, in the series on MIA PaCa-2 [1], the Activity is given as 529.5.
Still for that read-out and setting: next, `COc1cccc(C(=O)/C=C/c2cn(-c3ccc(F)cc3)nc2-c2ccc(-c3ccccc3)cc2)c1`: 675; `O=C(/C=C/c1cn(-c2ccccc2)nc1-c1ccc(-c2ccccc2)cc1)c1cc(F)ccc1O`: 540; `COc1ccc(C(=O)/C=C/c2cn(-c3ccc(F)cc3)nc2-c2ccc(-c3ccccc3)cc2)cc1OC`: 534.5.
